SMILES strings stand for the structures. Like-named read-outs stand apart in the source and are kept apart here.

This is an account of results in patent publication US20250304559A1, “Ether-Linked Antiviral Compounds” (Pfizer Inc., priority 2021, published 2025).

In assay [1] the target is T1, SARS-CoV-2 3CL protease (Severe acute respiratory syndrome coronavirus 2, UniProt P0DTD1).
T1 construct: measures the activity of full-length SARS-CoV-2 3CL protease
The assay is described as follows: SARS-CoV-2 Coronavirus 3C Protease FRET Assay. It is filed as biochemical. Particulars: Morrison equation fit, 15 nM enzyme, 25 μM peptide substrate.

Assay [2] has as its system SARS-CoV-2 (USA_WA1/2020). The assay is described as follows: Antiviral Activity from SARS-CoV-2 Infection (cytopathic effect, Cell Titer-Glo). It counts as cell-based. Conditions: VeroE6 cells enriched for hACE2, MOI 0.002, 3-day incubation, tested alone or with P-gp inhibitor CP-100356 2 μM (table does not say which), read-out: Geometric Mean EC50. On the technique in general: Protection from cytopathic effect is a common read-out in antiviral testing.

[3] abbreviates: Examples 14-78 and 114 (second head of Table 2), read-out: Geometric Mean Ki (nM) IC50.
The mark [4] stands for this setting: Severe acute respiratory syndrome coronavirus 2, Vero C1008, 72 h.
The mark [5] stands for this setting: Examples 1-13, 60 minutes at 23° C., read-out: Geometric Mean Ki.

In the case of `CC(C)(C)[C@H](NS(=O)(=O)C(F)(F)F)C(=O)N1C[C@H]2[C@@H]([C@H]1C(=O)N[C@@H](C[C@@H]1CCNC1=O)C(=O)COc1cc(F)ccc1F)C2(C)C` [Example 34, (1R,2S,5S)-N-{(2S)-4-(2,5-difluorophenoxy)-3-oxo-1-[(3S)-2-oxopyrrolidin-3-yl]butan-2-yl}-6,6-dimethyl-3-[3-methyl-N-(trifluoromethanesulfonyl)-L-valyl]-3-azabicyclo[3.1.0]hexane-2-carboxamide], in assay [1] (setting [3]), the Ki came to 6.95 nM. For the same compound, in assay [2] (setting [4]), the 50% effective concentration (EC50) was determined as 86 nM.
The corresponding values for `CC(C)[C@H](NC(=O)C(F)(F)F)C(=O)N1C[C@H]2[C@@H]([C@H]1C(=O)N[C@@H](C[C@@H]1CCNC1=O)C(=O)COc1nnc(C(F)(F)F)n1C)C2(C)C` [Example 74, (1R,2S,5S)-6,6-dimethyl-N-{(2S)-4-{[4-methyl-5-(trifluoromethyl)-4H-1,2,4-triazol-3-yl]oxy}-3-oxo-1-[(3S)-2-oxopyrrolidin-3-yl]butan-2-yl}-3-[N-(trifluoroacetyl)-L-valyl]-3-azabicyclo[3.1.0]hexane-2-carboxamide] are 919 nM and 25700 nM.
As to `COC(=O)N[C@H](C(=O)N1C[C@H]2[C@@H]([C@H]1C(=O)N[C@@H](C[C@@H]1CCNC1=O)C(=O)COc1cccc(Cl)c1)C2(C)C)C(C)(C)C` [Example 16, methyl {(2S)-1-[(1R,2S,5S)-2-({(2S)-4-(3-chlorophenoxy)-3-oxo-1-[(3S)-2-oxopyrrolidin-3-yl]butan-2-yl}carbamoyl)-6,6-dimethyl-3-azabicyclo[3.1.0]hexan-3-yl]-3,3-dimethyl-1-oxobutan-2-yl}carbamate], the Ki in assay [1] (setting [3]) turned out to be 0.21 nM. The EC50 in assay [2] (setting [4]) stood at 11.6 nM.
As to `COC(=O)N[C@H](C(=O)N1C[C@H]2[C@@H]([C@H]1C(=O)N[C@@H](C[C@@H]1CCNC1=O)C(=O)COc1ccccc1)C2(C)C)C(C)(C)C` [Example 30, methyl{(2S)-1-[(1R,2S,5S)-6,6-dimethyl-2-({(2S)-3-oxo-1-[(3S)-2-oxopyrrolidin-3-yl]-4-phenoxybutan-2-yl}carbamoyl)-3-azabicyclo[3.1.0]hexan-3-yl]-3,3-dimethyl-1-oxobutan-2-yl}carbamate], in assay [1] (setting [3]), the Ki worked out at 2.15 nM. Besides, the concentration for a half-maximal effect (EC50) in assay [2] (setting [4]) was 27.2 nM.
Take `CC(C)[C@H](NS(=O)(=O)C(F)(F)F)C(=O)N1C[C@H]2[C@@H]([C@H]1C(=O)N[C@@H](C[C@@H]1CC(=O)NC1=O)C(=O)COc1ccc(F)cc1F)C2(C)C` [Example 49, (1R,2S,5S)-N-{(2S)-4-(2,4-difluorophenoxy)-1-[(3R)-2,5-dioxopyrrolidin-3-yl]-3-oxobutan-2-yl}-6,6-dimethyl-3-[N-(trifluoromethanesulfonyl)-L-valyl]-3-azabicyclo[3.1.0]hexane-2-carboxamide]: in assay [1] (setting [3]), the Ki amounted to 9.93 nM. In assay [2] (setting [4]), the EC50 amounted to 2010 nM.
Regarding `CC(C)[C@H](NC(=O)C(F)(F)F)C(=O)N1CC[C@@H](C)C[C@H]1C(=O)N[C@@H](C[C@@H]1CCNC1=O)C(=O)COc1ccc(F)cc1F` (relative stereo) [Example 69, (2R*,4S*)-N-{(2S)-4-(2,4-difluorophenoxy)-3-oxo-1-[(3S)-2-oxopyrrolidin-3-yl]butan-2-yl}-4-methyl-1-[N-(trifluoroacetyl)-L-valyl]piperidine-2-carboxamide], the Ki in assay [1] (setting [3]) came out at 219 nM. Moreover, the EC50 in assay [2] (setting [4]) turned out to be 562 nM.
`CC(C)C[C@@H](C(=O)N1C[C@H]2[C@@H]([C@H]1C(=O)N[C@@H](C[C@@H]1CCNC1=O)C(=O)COc1cc(C(F)(F)F)nn1C)C2(C)C)N(C)C(C)C` (single isomer, unassigned) [Example 73, (1R,2S,5S)-6,6-dimethyl-3-[N-methyl-N-(propan-2-yl)-L-leucyl]-N-{(2R*)-4-{[1-methyl-3-(trifluoromethyl)-1H-pyrazol-5-yl]oxy}-3-oxo-1-[(3S)-2-oxopyrrolidin-3-yl]butan-2-yl}-3-azabicyclo[3.1.0]hexane-2-carboxamide, DIAST-2]: in assay [1] (setting [3]), the inhibitory constant (Ki) stood at 962 nM. Further, the EC50 in assay [2] was determined as 140 nM.
Consider `CC(C)(C)[C@H](NS(=O)(=O)C(F)(F)F)C(=O)N1C[C@H]2[C@@H]([C@H]1C(=O)N[C@@H](C[C@@H]1CCNC1=O)C(=O)COc1cccc(C(F)(F)F)c1)C2(C)C` [Example 10, (1R,2S,5S)-6,6-dimethyl-3-{3-methyl-N-[(trifluoromethyl)sulfonyl]-L-valyl}-N-{(2S)-3-oxo-1-[(3S)-2-oxopyrrolidin-3-yl]-4-[3-(trifluoromethyl)phenoxy]butan-2-yl}-3-azabicyclo[3.1.0]hexane-2-carboxamide], for which the inhibitory constant (Ki) in assay [1] (setting [5]) stood at 8.34 nM. Also, in assay [2] (setting [4]), the EC50 is 167 nM.
In the case of `CC(C)(C)[C@H](NS(C)(=O)=O)C(=O)N1C[C@H]2[C@@H]([C@H]1C(=O)N[C@@H](C[C@@H]1CCNC1=O)C(=O)COc1ccc(F)cc1F)C2(C)C` [Example 13, (1R,2S,5S)-N-{(2S)-4-(2,4-difluorophenoxy)-3-oxo-1-[(3S)-2-oxopyrrolidin-3-yl]butan-2-yl}-6,6-dimethyl-3-[3-methyl-N-(methylsulfonyl)-L-valyl]-3-azabicyclo[3.1.0]hexane-2-carboxamide], the Ki in assay [1] (setting [5]) was 1.78 nM. In addition, the EC50 in assay [2] (setting [4]) was 98.6 nM.
With `CC(C)[C@H](NC(=O)C(F)(F)F)C(=O)N1C[C@H]2[C@@H]([C@H]1C(=O)N[C@@H](C[C@@H]1CC(=O)NC1=O)C(=O)COc1ccc(F)cc1F)C2(C)C` [Example 42, (1R,2S,5S)-N-{(2S)-4-(2,4-difluorophenoxy)-1-[(3R)-2,5-dioxopyrrolidin-3-yl]-3-oxobutan-2-yl}-6,6-dimethyl-3-[N-(trifluoroacetyl)-L-valyl]-3-azabicyclo[3.1.0]hexane-2-carboxamide], the Ki in assay [1] (setting [3]) is 7.05 nM. Moreover, the concentration for a half-maximal effect (EC50) in assay [2] (setting [4]) worked out at 301 nM.
The like results for `CC(C)[C@H](NC(=O)C(F)(F)F)C(=O)N1C[C@H]2[C@@H]([C@H]1C(=O)N[C@@H](C[C@@H]1CCNC1=O)C(=O)COc1cnsn1)C2(C)C` [Example 62, (1R,2S,5S)-6,6-dimethyl-N-{(2S)-3-oxo-1-[(3S)-2-oxopyrrolidin-3-yl]-4-[(1,2,5-thiadiazol-3-yl)oxy]butan-2-yl}-3-[N-(trifluoroacetyl)-L-valyl]-3-azabicyclo[3.1.0]hexane-2-carboxamide] were, in that order, 55.7 nM and 1870 nM.
As to `CC(C)[C@H](NC(=O)C(F)(F)F)C(=O)N1C[C@H]2[C@@H]([C@H]1C(=O)N[C@H](C[C@@H]1CCNC1=O)C(=O)COc1ccc(F)cc1F)C2(C)C` [Example 2, (1R,2S,5S)-N-{(2R)-4-(2,4-difluorophenoxy)-3-oxo-1-[(3S)-2-oxopyrrolidin-3-yl]butan-2-yl}-6,6-dimethyl-3-[N-(trifluoroacetyl)-L-valyl]-3-azabicyclo[3.1.0]hexane-2-carboxamide], the inhibition constant (Ki) in assay [1] (setting [5]) is 172 nM. Also, the EC50 in assay [2] (setting [4]) was 74.4 nM.
With `COC(=O)N[C@H](C(=O)N1C[C@H]2[C@@H]([C@H]1C(=O)N[C@@H](C[C@@H]1CCNC1=O)C(=O)COc1ccc(F)cc1)C2(C)C)C(C)(C)C` [Example 21, methyl {(2S)-1-[(1R,2S,5S)-2-({(2S)-4-(4-fluorophenoxy)-3-oxo-1-[(3S)-2-oxopyrrolidin-3-yl]butan-2-yl}carbamoyl)-6,6-dimethyl-3-azabicyclo[3.1.0]hexan-3-yl]-3,3-dimethyl-1-oxobutan-2-yl}carbamate], in assay [1] (setting [3]), the Ki turned out to be 2.2 nM. The EC50 in assay [2] (setting [4]) turned out to be 18.8 nM.
Take `CC(C)[C@H](NC(=O)C(F)(F)F)C(=O)N1C[C@H]2[C@@H]([C@H]1C(=O)N[C@@H](C[C@@H]1CCNC1=O)C(=O)COc1ccc(F)c(F)c1)C2(C)C` [Example 48, (1R,2S,5S)-N-{(2S)-4-(3,4-difluorophenoxy)-3-oxo-1-[(3S)-2-oxopyrrolidin-3-yl]butan-2-yl}-6,6-dimethyl-3-[N-(trifluoroacetyl)-L-valyl]-3-azabicyclo[3.1.0]hexane-2-carboxamide]: in assay [1] (setting [3]), the Ki turned out to be 7.87 nM. In assay [2] (setting [4]), the half-maximal effective concentration (EC50) stood at 44.3 nM.
For `CC(C)[C@H](NC(=O)C(F)(F)F)C(=O)N1C[C@H]2[C@@H]([C@H]1C(=O)N[C@@H](C[C@@H]1CCNC1=O)C(=O)COc1cccc(Cl)c1)C2(C)C` [Example 50, (1R,2S,5S)-N-{(2S)-4-(3-chlorophenoxy)-3-oxo-1-[(3S)-2-oxopyrrolidin-3-yl]butan-2-yl}-6,6-dimethyl-3-[N-(trifluoroacetyl)-L-valyl]-3-azabicyclo[3.1.0]hexane-2-carboxamide], the Ki in assay [1] (setting [3]) amounted to 10.7 nM. The EC50 in assay [2] (setting [4]) worked out at 76.2 nM.
The corresponding values for `Cc1ccc2c(OCC(=O)[C@H](C[C@@H]3CCNC3=O)NC(=O)[C@@H]3[C@@H]4[C@H](CN3C(=O)[C@@H](NC(=O)C(F)(F)F)C(C)C)C4(C)C)noc2c1` [Example 51, (1R,2S,5S)-6,6-dimethyl-N-{(2S)-4-[(6-methyl-1,2-benzoxazol-3-yl)oxy]-3-oxo-1-[(3S)-2-oxopyrrolidin-3-yl]butan-2-yl}-3-[N-(trifluoroacetyl)-L-valyl]-3-azabicyclo[3.1.0]hexane-2-carboxamide] are 10.5 nM and 94.2 nM.
The like results for `CC(C)(C)[C@H](NS(=O)(=O)C(F)(F)F)C(=O)N1C[C@H]2[C@@H]([C@H]1C(=O)N[C@@H](C[C@@H]1CCNC1=O)C(=O)COc1cccc(Cl)c1)C2(C)C` [Example 28, (1R,2S,5S)-N-{(2S)-4-(3-chlorophenoxy)-3-oxo-1-[(3S)-2-oxopyrrolidin-3-yl]butan-2-yl}-6,6-dimethyl-3-[3-methyl-N-(trifluoromethanesulfonyl)-L-valyl]-3-azabicyclo[3.1.0]hexane-2-carboxamide] were, in that order, 2.15 nM and 16.8 nM.

The Ki is the dissociation constant of the complex between target and ligand, obtained from inhibition or displacement. As usually defined, the EC50 is the concentration needed to bring the measured effect to its halfway point.
